Experimental data reported in patent publication US10806732B2, “Stable anti-neoplastic pharmaceutical composition comprising temozolomide and method of preparing the composition” (DOUBLE BOND PHARMACEUTICAL AB, priority 2016, dated 2020).

What was measured:
[1] = oral administration; cited from earlier work
[2] = Stability of TMZ in dextran phosphate gel of pH 7.2-7.4 (prior art BY 11838 C1); type: physicochemical
Text: BY 11838 C1 discloses a combined treatment method for malignant brain tumors. The method comprises surgical excision of the tumor tissue followed by application of TMZ comprised by high substituted dextran phosphate gel of pH 7.2-7.4. The dry weight ratio of TMZ/high substituted dextran phosphate in the preparation is 0.03:1.0. The freeze-dried gel is reconstituted by the addition of sterile water and pH adjusted prior to use, then applied to the wound surface. […] In addition, the structure of highly substituted dextran phosphate contains a large number of di- and tri-substituted phosphoric acid groups, which provide additional cross-linking of macromolecules, which reduces the ability to absorb water and limits the amount of TMZ to 30 mg/g in the gel of highly substituted dextran phosphate. The low concentration of TMZ in the composition implies that the volume must be increased to administrate higher dose of the substance, i.e., the prodrug TMZ, and thus also the amount highly substituted dextran phosphates administered is increased. A 2- or 3-fold increase in the amount of highly substituted dextran phosphates can lead to undesirable reactions associated with the duration of the biodegradation process. […]

- stability of TMZ (hydrolysis to AIC) [2]: decomposes
SMILES: Cn1nnc2c(C(N)=O)ncn2c1=O [TMZ, 4-methyl-5-oxo-2,3,4,6,8-pentazabicyclo[4.3.0]nona-2,7,9-triene-9-carboxamide]
- half-life [1]: 1.8 h
- time to peak plasma concentration [1]: 0.7 h
